# Assay results: ChEMBL document CHEMBL6182898, “Design, synthesis and bioevaluation of novel hydrazide derivatives as enhancers of immunotherapy and DNA-damage response in antitumor therapy” (Eur J Med Chem, 2025)
# Activity calls are given as the source filed them. The rule behind the calls is not given here.
# Key:
# B16-F10 [1] = assay: Antitumor activity against mouse B16-F10 cells implanted in male C57BL/6J mouse at 20 mg/kg, IG treated for 14 days consecutively relative to control; type: functional; settings: B16-F10, po, 336 h, time 14 day, read-out: TGI
# B16-F10 [2] = assay: Induction of antitumor immunity in mouse B16-F10 cells implanted in male C57BL/6J mouse assessed as CD3+CD8+ T cell infiltration at 20 mg/kg, IG treated for 14 days consecutively by flow cytometry (reference value: 10 %); type: functional; settings: time 14 day
# B16-F10 [3] = assay: Induction of antitumor immunity in mouse B16-F10 cells implanted in male C57BL/6J mouse assessed as CD3+CD4+ T cell infiltration at 20 mg/kg, IG treated for 14 days consecutively by flow cytometry (reference value: 7.4 %); type: functional; settings: time 14 day
# 4T1 [4] = assay: Induction of DNA damage in mouse 4T1 cells assessed as decrease in PARP1 level at 2 uM incubated for 24 hrs by Western blot analysis; type: functional, cell-based
# 4T1 [5] = assay: Induction of DNA damage in mouse 4T1 cells implanted in mouse assessed as increase in gamma-H2AX level at 20 mg/kg/day by immunofluorescence based analysis; type: functional, organism-based
# 4T1 [6] = assay: Induction of DNA damage in mouse 4T1 cells assessed as decrease in PARP1 level at 1 uM by immunofluorescence based analysis; type: functional, cell-based
# 4T1 [7] = assay: Induction of DNA damage in mouse 4T1 cells implanted in mouse assessed as increase in gamma-H2AX level at 20 mg/kg/day by Western blot analysis; type: functional, organism-based
# 4T1 [8] = assay: Antitumor activity against mouse 4T1 cells implanted in mouse at 20 mg/kg/day relative to control; type: functional; settings: read-out: TGI
# 4T1 [9] = assay: Induction of DNA damage in mouse 4T1 cells implanted in mouse assessed as decrease in PARP level at 20 mg/kg/day by immunofluorescence based analysis; type: functional, organism-based
# 4T1 [10] = assay: Induction of DNA damage in mouse 4T1 cells implanted in mouse assessed as decrease in PARP level at 20 mg/kg/day by Western blot analysis; type: functional, organism-based
# 4T1 [11] = assay: Induction of DNA damage in mouse 4T1 cells assessed as increase in gamma-H2AX level at 2 uM incubated for 24 hrs by Western blot analysis; type: functional, cell-based
# 4T1 [12] = assay: Induction of DNA damage in mouse 4T1 cells assessed as increase in gamma-H2AX level at 1 uM by immunofluorescence based analysis; type: functional, cell-based
# 4T1 [13] = assay: Induction of DNA damage in mouse 4T1 cells assessed as decrease in PARP1 level at 5 uM by immunofluorescence based analysis; type: functional, cell-based
# 4T1 [14] = assay: Induction of DNA damage in mouse 4T1 cells assessed as increase in gamma-H2AX level at 5 uM by immunofluorescence based analysis; type: functional, cell-based
# 4T1 [15] = assay: Synergistic induction of DNA damage in mouse 4T1 cells assessed as increase in gamma-H2AX level at 1 uM incubated for 24 hrs in presence of Olaparib by Western blot analysis; type: functional, cell-based
# [16] = target: T1, Histone deacetylase 3 (Mus musculus) (UniProt O88895); assay: In vivo inhibition of HDAC3 in mouse B16-F10 cells implanted in male C57BL/6J mouse assessed as increase in Ac-H3 level at 50 mg/kg, IG treated for 14 days consecutively by Western blot analysis; type: functional, organism-based; settings: time 14.0 day
# T1 sequence (whole entry): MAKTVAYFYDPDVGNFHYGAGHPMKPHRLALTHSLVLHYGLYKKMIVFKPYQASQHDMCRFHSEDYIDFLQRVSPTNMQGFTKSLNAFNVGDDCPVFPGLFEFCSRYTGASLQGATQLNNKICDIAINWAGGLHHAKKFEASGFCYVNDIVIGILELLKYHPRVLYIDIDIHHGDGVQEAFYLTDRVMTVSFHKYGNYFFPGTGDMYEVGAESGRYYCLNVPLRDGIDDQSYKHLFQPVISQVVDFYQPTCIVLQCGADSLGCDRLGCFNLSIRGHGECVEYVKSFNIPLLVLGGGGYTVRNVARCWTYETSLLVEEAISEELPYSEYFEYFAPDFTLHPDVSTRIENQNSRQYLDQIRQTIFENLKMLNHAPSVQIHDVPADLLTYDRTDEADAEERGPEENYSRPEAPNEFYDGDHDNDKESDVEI
# Mus musculus = assay: Effect on Ac-alpha-tubulin in mouse B16-F10 cells implanted in male C57BL/6J mouse at 50 mg/kg, IG treated for 14 days consecutively by Western blot analysis; type: functional, organism-based; settings: time 14.0 day
# [17] = target: T1, Histone deacetylase 3 (Mus musculus); assay: In vivo inhibition of HDAC3 in mouse B16-F10 cells implanted in male C57BL/6J mouse assessed as increase in Ac-H3 level at 50 mg/kg, IG treated for 14 days consecutively by immunofluorescence based analysis; type: functional, organism-based; settings: time 14.0 day
# B16-F10 [18] = assay: Induction of antitumor immunity in mouse B16-F10 cells implanted in male C57BL/6J mouse assessed as CD3+CD8+ T cell infiltration at 50 mg/kg, IG treated for 14 days consecutively by flow cytometry (reference value: 10 %); type: functional; settings: time 14 day
# [19] = target: T1, Histone deacetylase 3 (Mus musculus); assay: In vivo inhibition of HDAC3 in mouse B16-F10 cells implanted in male C57BL/6J mouse assessed as decrease in PD-L1 level at 50 mg/kg, IG treated for 14 days consecutively by Western blot analysis; type: functional, organism-based; settings: time 14.0 day
# B16-F10 [20] = assay: Induction of antitumor immunity in mouse B16-F10 cells implanted in male C57BL/6J mouse assessed as CD3+CD4+ T cell infiltration at 50 mg/kg, IG treated for 14 days consecutively by flow cytometry (reference value: 7.4 %); type: functional; settings: time 14 day
# 4T1 [21] = assay: Synergistic induction of DNA damage in mouse 4T1 cells assessed as decrease in PARP1 level at 1 uM incubated for 24 hrs in presence of Olaparib by Western blot analysis; type: functional, cell-based
compound,measurement,setting,value
Cc1c(COc2cc(OCc3cccc(C#N)c3)c(CNC(C)(C)C(=O)O)cc2Cl)cccc1-c1ccccc1,inhibition in vivo at 20 mg/kg,B16-F10 [1],33%
same,Activity,B16-F10 [2],31%
same,Activity,B16-F10 [3],23%
O=C(c1cc(Cc2n[nH]c(=O)c3ccccc23)ccc1F)N1CCN(C(=O)C2CC2)CC1 [OLAPARIB],Activity,4T1 [4],Active
same,Activity,4T1 [5],Active
same,Activity,4T1 [6],Active
same,Activity,4T1 [7],Active
same,inhibition in vivo at 20 mg/kg/day,4T1 [8],49%
same,Activity,4T1 [9],Active
same,Activity,4T1 [10],Active
same,Activity,4T1 [11],Active
same,Activity,4T1 [12],Active
O=C(CCCCCCC(=O)Nc1ccccc1)NO [VORINOSTAT],Activity,4T1 [4],Active
same,Activity,4T1 [13],Active
same,Activity,4T1 [14],Active
same,Activity,4T1 [15],Active
same,inhibition,[16],Active
same,Activity,Mus musculus,No effect
same,inhibition,[17],Active
same,Activity,B16-F10 [18],17%
same,inhibition,[19],Active
same,Activity,B16-F10 [20],18%
same,Activity,4T1 [21],Active
same,Activity,4T1 [11],Active
